Patent US9682995B2, “Amino-substituted isothiazoles” (BAYER PHARMA AKTIENGESELLSCHAFT, priority 2013, dated 2017)

How the values were obtained:
Test in all cases: Kinase Profiling (KINOMEscan)
Assay type in all cases: binding
[1] = target: 456 kinases (of these 395 non-mutant kinases) (Homo sapiens, UniProt P11362); conditions: FGFR1; 10 μM
[2] = target: 456 kinases (of these 395 non-mutant kinases) (Homo sapiens, UniProt Q9P289); conditions: MST4; 10 μM
[3] = target: 456 kinases (of these 395 non-mutant kinases) (Homo sapiens, UniProt P04629); conditions: TRKA; 10 μM
[4] = target: 456 kinases (of these 395 non-mutant kinases) (Homo sapiens, UniProt Q86YV6); conditions: MYLK4; 10 μM
[5] = target: 456 kinases (of these 395 non-mutant kinases) (Homo sapiens, UniProt Q9C098); conditions: DCAMKL3; 10 μM
[6] = target: 456 kinases (of these 395 non-mutant kinases) (Homo sapiens, UniProt P10721, D816H); conditions: KIT(D816H); 10 μM
[7] = target: 456 kinases (of these 395 non-mutant kinases) (Homo sapiens, UniProt P42338); conditions: PIK3CB; 10 μM
[8] = target: 456 kinases (of these 395 non-mutant kinases) (Homo sapiens, UniProt P12931); conditions: SRC; 10 μM
[9] = target: 456 kinases (of these 395 non-mutant kinases) (Homo sapiens, UniProt Q6DT37); conditions: DMPK2; 10 μM
[10] = target: 456 kinases (of these 395 non-mutant kinases) (Homo sapiens, UniProt P50613); conditions: CDK7; 10 μM
[11] = target: 456 kinases (of these 395 non-mutant kinases) (Homo sapiens, UniProt O76039); conditions: CDKL5; 10 μM
[12] = target: 456 kinases (of these 395 non-mutant kinases) (Homo sapiens, UniProt P07948); conditions: LYN; 10 μM
[13] = target: 456 kinases (of these 395 non-mutant kinases) (Homo sapiens, UniProt Q13705); conditions: ACVR2B; 10 μM
[14] = target: 456 kinases (of these 395 non-mutant kinases) (Homo sapiens, UniProt O14936); conditions: CASK; 10 μM
[15] = target: 456 kinases (of these 395 non-mutant kinases) (Homo sapiens, UniProt P08631); conditions: HCK; 10 μM
[16] = target: 456 kinases (of these 395 non-mutant kinases) (Homo sapiens, UniProt P00519); conditions: 10 μM
[17] = target: 456 kinases (of these 395 non-mutant kinases) (Homo sapiens, UniProt Q99759); conditions: MAP3K3; 10 μM
[18] = target: 456 kinases (of these 395 non-mutant kinases) (Homo sapiens, UniProt Q9P1W9); conditions: PIM2; 10 μM
[19] = target: 456 kinases (of these 395 non-mutant kinases) (Homo sapiens, UniProt O14976); conditions: GAK; 10 μM
[20] = target: 456 kinases (of these 395 non-mutant kinases) (Homo sapiens, UniProt Q06187); conditions: BTK; 10 μM
[21] = target: 456 kinases (of these 395 non-mutant kinases) (Homo sapiens, UniProt Q9UBE8); conditions: NLK; 10 μM
[22] = target: 456 kinases (of these 395 non-mutant kinases) (Homo sapiens, UniProt P51813); conditions: BMX; 10 μM
[23] = target: 456 kinases (of these 395 non-mutant kinases) (Homo sapiens, UniProt P42336); conditions: PIK3CA; 10 μM
[24] = target: 456 kinases (of these 395 non-mutant kinases) (Homo sapiens, UniProt Q96D53); conditions: ADCK4; 10 μM
[25] = target: 456 kinases (of these 395 non-mutant kinases) (Homo sapiens, UniProt Q9NQU5); conditions: PAK6; 10 μM
[26] = target: 456 kinases (of these 395 non-mutant kinases) (Homo sapiens, UniProt Q08345); conditions: DDR1; 10 μM
[27] = target: 456 kinases (of these 395 non-mutant kinases) (Homo sapiens, UniProt P22607, G697C); conditions: FGFR3(G697C); 10 μM
[28] = target: 456 kinases (of these 395 non-mutant kinases) (Homo sapiens, UniProt P15056, V600E); conditions: BRAF(V600E); 10 μM
[29] = target: 456 kinases (of these 395 non-mutant kinases) (Homo sapiens, UniProt Q9BX84); conditions: TRPM6; 10 μM
[30] = target: 456 kinases (of these 395 non-mutant kinases) (Homo sapiens, UniProt Q02779); conditions: MLK2; 10 μM
[31] = target: 456 kinases (of these 395 non-mutant kinases) (Homo sapiens, UniProt Q96Q40); conditions: PFTAIRE2; 10 μM
[32] = target: 456 kinases (of these 395 non-mutant kinases) (Homo sapiens, UniProt P10721, T670I/V559D); conditions: KIT(V559D,T670I); 10 μM

Sequence of 456 kinases (of these 395 non-mutant kinases) (Homo sapiens, UniProt Q08345) (Q08345 19-913 limits assumed, stated change not applied): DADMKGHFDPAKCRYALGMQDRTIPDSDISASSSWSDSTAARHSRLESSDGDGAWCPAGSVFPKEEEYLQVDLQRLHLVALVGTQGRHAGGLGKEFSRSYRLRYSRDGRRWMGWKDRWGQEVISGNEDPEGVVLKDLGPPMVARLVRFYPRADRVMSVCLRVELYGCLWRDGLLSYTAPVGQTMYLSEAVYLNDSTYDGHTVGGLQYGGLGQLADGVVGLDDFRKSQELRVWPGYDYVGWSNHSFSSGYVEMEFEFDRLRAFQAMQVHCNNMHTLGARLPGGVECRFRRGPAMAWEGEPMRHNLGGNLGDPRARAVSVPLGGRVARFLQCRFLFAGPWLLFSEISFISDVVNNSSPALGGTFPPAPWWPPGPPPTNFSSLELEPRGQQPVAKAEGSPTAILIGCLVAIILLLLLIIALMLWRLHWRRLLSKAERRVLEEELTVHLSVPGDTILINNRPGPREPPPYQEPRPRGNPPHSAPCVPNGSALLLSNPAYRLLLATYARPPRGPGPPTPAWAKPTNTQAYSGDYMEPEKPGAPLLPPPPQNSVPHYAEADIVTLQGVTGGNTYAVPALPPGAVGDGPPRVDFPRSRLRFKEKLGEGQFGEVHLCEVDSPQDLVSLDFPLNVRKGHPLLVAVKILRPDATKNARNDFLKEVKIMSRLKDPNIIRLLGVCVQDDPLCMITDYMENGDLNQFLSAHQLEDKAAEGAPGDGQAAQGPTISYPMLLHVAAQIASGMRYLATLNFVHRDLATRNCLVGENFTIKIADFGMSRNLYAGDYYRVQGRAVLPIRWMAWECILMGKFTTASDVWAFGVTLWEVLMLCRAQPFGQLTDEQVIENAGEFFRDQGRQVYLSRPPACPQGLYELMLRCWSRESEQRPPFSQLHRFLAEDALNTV
Sequence of 456 kinases (of these 395 non-mutant kinases) (Homo sapiens, UniProt Q13705) (Q13705 19-512 limits assumed, change not shown): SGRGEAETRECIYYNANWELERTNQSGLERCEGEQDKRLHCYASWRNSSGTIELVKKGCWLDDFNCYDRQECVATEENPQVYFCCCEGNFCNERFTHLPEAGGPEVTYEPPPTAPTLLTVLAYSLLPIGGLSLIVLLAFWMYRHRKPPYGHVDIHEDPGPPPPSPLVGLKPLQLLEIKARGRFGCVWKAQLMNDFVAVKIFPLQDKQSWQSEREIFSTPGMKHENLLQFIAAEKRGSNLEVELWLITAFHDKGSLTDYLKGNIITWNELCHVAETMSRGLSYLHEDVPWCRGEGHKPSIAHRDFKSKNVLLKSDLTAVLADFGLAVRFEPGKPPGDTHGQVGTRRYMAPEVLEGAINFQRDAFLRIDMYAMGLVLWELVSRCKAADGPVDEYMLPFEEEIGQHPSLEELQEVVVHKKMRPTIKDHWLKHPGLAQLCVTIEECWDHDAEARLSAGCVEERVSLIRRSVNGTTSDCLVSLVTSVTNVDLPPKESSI
Sequence of 456 kinases (of these 395 non-mutant kinases) (Homo sapiens, UniProt P15056, V600E) (P15056 2-766 V600E limits assumed): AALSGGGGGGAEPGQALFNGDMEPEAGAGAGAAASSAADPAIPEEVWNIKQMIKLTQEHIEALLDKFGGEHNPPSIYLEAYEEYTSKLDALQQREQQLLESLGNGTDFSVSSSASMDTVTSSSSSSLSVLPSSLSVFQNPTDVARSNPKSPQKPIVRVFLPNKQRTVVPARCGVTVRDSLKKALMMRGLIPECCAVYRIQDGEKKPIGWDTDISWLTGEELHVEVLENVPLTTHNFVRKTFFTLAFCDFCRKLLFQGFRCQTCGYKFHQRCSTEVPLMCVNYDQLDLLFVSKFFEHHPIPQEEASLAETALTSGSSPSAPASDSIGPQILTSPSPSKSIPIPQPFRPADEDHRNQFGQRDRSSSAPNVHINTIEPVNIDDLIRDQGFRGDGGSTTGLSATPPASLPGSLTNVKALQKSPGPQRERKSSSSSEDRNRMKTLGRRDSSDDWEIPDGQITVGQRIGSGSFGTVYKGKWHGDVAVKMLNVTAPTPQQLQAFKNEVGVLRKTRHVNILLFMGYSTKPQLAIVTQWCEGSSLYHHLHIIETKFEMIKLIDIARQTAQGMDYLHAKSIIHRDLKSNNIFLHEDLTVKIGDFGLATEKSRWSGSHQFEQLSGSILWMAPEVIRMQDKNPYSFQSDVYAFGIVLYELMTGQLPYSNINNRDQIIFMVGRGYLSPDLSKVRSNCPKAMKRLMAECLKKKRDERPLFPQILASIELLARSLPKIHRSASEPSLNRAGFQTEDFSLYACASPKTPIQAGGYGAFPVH
Sequence of 456 kinases (of these 395 non-mutant kinases) (Homo sapiens, UniProt P12931) (P12931 2-536 limits assumed, change not shown): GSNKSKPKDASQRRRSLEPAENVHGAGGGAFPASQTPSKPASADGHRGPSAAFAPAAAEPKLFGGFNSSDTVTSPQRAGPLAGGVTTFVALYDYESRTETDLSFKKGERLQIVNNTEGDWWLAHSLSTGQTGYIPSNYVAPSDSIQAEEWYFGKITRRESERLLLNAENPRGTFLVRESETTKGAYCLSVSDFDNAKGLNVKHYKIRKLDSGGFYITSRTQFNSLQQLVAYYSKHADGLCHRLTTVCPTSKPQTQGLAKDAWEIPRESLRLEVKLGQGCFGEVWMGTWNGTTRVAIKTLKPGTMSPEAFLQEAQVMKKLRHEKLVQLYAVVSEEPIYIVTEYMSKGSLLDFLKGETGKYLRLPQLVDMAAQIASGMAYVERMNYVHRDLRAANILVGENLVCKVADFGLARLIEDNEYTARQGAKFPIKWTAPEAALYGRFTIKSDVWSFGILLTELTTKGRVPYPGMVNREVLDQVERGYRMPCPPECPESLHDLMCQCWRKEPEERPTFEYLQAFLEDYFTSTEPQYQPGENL
Sequence of 456 kinases (of these 395 non-mutant kinases) (Homo sapiens, UniProt P11362) (P11362 22-822 limits assumed, change not shown): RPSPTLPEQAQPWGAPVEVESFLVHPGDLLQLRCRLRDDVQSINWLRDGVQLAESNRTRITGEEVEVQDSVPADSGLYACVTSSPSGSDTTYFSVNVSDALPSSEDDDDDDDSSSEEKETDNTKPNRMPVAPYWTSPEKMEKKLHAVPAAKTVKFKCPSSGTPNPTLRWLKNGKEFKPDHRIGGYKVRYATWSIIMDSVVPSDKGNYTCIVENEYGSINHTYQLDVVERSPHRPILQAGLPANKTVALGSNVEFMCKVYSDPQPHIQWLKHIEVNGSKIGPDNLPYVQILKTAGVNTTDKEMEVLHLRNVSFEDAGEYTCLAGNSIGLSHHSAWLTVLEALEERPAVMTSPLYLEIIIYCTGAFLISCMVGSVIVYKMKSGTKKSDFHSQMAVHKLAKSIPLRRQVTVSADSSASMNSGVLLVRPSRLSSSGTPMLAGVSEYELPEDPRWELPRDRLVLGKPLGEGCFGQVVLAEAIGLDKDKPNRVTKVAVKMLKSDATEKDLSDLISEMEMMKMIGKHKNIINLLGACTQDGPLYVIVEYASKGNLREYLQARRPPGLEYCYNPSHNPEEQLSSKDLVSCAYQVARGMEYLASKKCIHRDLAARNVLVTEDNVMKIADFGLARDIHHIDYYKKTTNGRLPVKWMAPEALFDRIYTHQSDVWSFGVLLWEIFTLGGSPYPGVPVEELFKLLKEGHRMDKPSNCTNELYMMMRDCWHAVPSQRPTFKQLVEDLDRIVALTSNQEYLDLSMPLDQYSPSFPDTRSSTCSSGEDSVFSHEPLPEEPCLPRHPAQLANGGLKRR
Sequence of 456 kinases (of these 395 non-mutant kinases) (Homo sapiens, UniProt P07948) (P07948 2-512 limits assumed, change not shown): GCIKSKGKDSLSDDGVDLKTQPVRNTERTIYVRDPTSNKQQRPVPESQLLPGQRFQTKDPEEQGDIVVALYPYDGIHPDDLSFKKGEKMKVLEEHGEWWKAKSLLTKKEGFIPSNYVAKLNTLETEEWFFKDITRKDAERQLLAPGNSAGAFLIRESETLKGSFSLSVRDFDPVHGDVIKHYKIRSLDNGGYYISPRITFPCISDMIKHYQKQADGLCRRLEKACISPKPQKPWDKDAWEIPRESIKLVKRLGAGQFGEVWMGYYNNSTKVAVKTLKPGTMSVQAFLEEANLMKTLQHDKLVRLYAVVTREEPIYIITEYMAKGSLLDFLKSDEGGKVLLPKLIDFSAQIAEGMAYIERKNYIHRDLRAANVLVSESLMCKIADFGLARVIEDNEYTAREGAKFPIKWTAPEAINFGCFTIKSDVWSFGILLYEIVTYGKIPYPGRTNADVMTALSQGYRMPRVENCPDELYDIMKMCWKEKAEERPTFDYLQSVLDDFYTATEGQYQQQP
Sequence of 456 kinases (of these 395 non-mutant kinases) (Homo sapiens, UniProt Q9P289) (Q9P289 2-416 limits assumed, change not shown): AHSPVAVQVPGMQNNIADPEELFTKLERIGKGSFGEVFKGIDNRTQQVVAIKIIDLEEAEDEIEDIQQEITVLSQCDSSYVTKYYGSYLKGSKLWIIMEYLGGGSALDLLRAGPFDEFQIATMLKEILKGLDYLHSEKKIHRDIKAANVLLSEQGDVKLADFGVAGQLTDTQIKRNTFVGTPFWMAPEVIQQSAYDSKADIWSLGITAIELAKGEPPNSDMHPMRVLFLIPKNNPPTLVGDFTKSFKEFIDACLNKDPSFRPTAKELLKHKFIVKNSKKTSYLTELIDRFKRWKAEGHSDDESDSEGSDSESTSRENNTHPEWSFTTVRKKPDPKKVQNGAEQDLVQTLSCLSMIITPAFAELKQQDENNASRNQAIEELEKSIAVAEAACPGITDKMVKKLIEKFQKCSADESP
Sequence of 456 kinases (of these 395 non-mutant kinases) (Homo sapiens, UniProt P50613) (P50613 2-346 limits assumed, change not shown): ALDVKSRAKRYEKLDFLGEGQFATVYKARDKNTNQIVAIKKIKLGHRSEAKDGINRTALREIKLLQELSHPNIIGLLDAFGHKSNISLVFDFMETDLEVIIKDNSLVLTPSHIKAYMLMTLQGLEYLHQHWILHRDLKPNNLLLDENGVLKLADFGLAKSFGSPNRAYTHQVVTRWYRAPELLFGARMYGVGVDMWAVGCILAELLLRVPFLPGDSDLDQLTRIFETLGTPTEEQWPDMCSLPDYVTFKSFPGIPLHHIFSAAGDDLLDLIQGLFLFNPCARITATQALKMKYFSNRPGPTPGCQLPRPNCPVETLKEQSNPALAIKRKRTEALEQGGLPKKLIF

## CCc1ccccc1NC(=O)c1c(C)nsc1Nc1cnc2cc(F)ccc2n1 [Example 20, N-(2-Ethylphenyl)-5-[(6-fluoroquinoxalin-2-yl)amino]-3-methyl-1,2-thiazole-4-carboxamide]
[1]
  % Ctrl @ 10 μM: 94 % Ctrl
[2]
  % Ctrl @ 10 μM: 100 % Ctrl
[3]
  % Ctrl @ 10 μM: 100 % Ctrl
[4]
  % Ctrl @ 10 μM: 100 % Ctrl
[5]
  % Ctrl @ 10 μM: 100 % Ctrl
[6]
  % Ctrl @ 10 μM: 97 % Ctrl
[7]
  % Ctrl @ 10 μM: 83 % Ctrl
[8]
  % Ctrl @ 10 μM: 100 % Ctrl
[9]
  % Ctrl @ 10 μM: 79 % Ctrl
[10]
  % Ctrl @ 10 μM: 92 % Ctrl
[11]
  % Ctrl @ 10 μM: 100 % Ctrl
[12]
  % Ctrl @ 10 μM: 76 % Ctrl
[13]
  % Ctrl @ 10 μM: 91 % Ctrl
[14]
  % Ctrl @ 10 μM: 87 % Ctrl
[15]
  % Ctrl @ 10 μM: 59 % Ctrl
[16]; ABL1-nonphosphorylated
  % Ctrl @ 10 μM: 100 % Ctrl
[16]; ABL1-phosphorylated
  % Ctrl @ 10 μM: 100 % Ctrl
[17]
  % Ctrl @ 10 μM: 100 % Ctrl
[18]
  % Ctrl @ 10 μM: 100 % Ctrl
[19]
  % Ctrl @ 10 μM: 96 % Ctrl
[20]
  % Ctrl @ 10 μM: 98 % Ctrl
[21]
  % Ctrl @ 10 μM: 100 % Ctrl
[22]
  % Ctrl @ 10 μM: 95 % Ctrl
[23]
  % Ctrl @ 10 μM: 100 % Ctrl
[24]
  % Ctrl @ 10 μM: 100 % Ctrl
[25]
  % Ctrl @ 10 μM: 100 % Ctrl
[26]
  % Ctrl @ 10 μM: 77 % Ctrl
[27]
  % Ctrl @ 10 μM: 87 % Ctrl
[28]
  % Ctrl @ 10 μM: 100 % Ctrl
[29]
  % Ctrl @ 10 μM: 83 % Ctrl
[30]
  % Ctrl @ 10 μM: 78 % Ctrl
[31]
  % Ctrl @ 10 μM: 84 % Ctrl
[32]
  % Ctrl @ 10 μM: 100 % Ctrl
